Measurements: article PMC5062570 (Nature Communications, 2016)
“Also recorded” adds a separate entry of the source. Read-outs that look alike come from different tables or passages of the source. Each block holds one compound with its values, some of them ahead of it.

Tests used:
retina = settings: mouse, in vivo; cited from earlier work
BACE2 = target: T1, BACE2 (Homo sapiens, UniProt Q9Y5Z0); experiment: BACE2 purified enzyme fluorescence polarization assay; assay type: biochemical; settings: for IC50: purified human enzyme, fluorescence polarization
T1 construct: purchased R&D Systems 4097-AS
T1 sequence (Q9Y5Z0 63-518): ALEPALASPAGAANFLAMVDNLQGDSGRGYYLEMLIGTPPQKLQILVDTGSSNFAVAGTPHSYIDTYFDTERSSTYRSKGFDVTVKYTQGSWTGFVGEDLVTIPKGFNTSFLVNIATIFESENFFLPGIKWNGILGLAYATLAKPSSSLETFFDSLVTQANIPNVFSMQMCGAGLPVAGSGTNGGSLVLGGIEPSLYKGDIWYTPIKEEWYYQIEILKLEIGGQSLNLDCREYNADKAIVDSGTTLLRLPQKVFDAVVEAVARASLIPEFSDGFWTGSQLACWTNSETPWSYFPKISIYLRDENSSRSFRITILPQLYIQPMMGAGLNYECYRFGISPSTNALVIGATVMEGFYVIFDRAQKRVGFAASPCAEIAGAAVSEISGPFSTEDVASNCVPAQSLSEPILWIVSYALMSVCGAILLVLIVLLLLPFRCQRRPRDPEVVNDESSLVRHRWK
Description: (§1) Purified enzyme inhibition of BACE1, BACE2, CatD and CatE was determined using fluorescence polarization (FP) assays. Briefly, purified enzymes were treated with test compounds (1% DMSO, 37 °C) in the presence of synthetic peptide substrates (150 nM) in 30 μl total volume of NaOAc buffer (100 mM, pH 4.5, 0.0001% Tween-20) in a 384-well plate. After incubation, reactions were stopped and substrate captured by the addition of 1.5 μM streptavidin, and FP measured with an EnVision plate reader (PerkinElmer, excitation 485 nm, emission 530 nm). […] BACE2 activity was assessed with 0.5 nM recombinant BACE2 (R&D Systems 4097-AS) and the same synthetic substrate used for BACE1, with a 1 h incubation time. […] CatE activity was assessed with 1.0 nM recombinant CatE (Creative BioMart CTSE-255H) and the same synthetic substrate used for CatD, with a 1.5 h incubation time.

[1] = tested on: CatD protein level in ARPE-19 cells; experiment: Chronic ARPE-19 inhibitor treatment and CatD ELISA; assay type: cell-based, human; settings: 300 pM-10 μM, 7 days
Description: ARPE-19 cells were plated in 96-well plates at a density of 2 × 10^4 cells per well. After 12–24 h, media was removed and replaced with media containing test compounds at the indicated concentration. After 7 days of compound incubation (no media changes or additional test compound treatments), conditioned media was collected for a cytotoxicity assay, and attached cells were washed once with DPBS and then lysed on ice with gentle pipetting followed by a 20 min extraction in 50 μl in ice-cold RIPA buffer (50 mM Tris, pH 7.4, 150 mM NaCl, 1 mM EDTA, 1% NP40, 1% Na deoxycholate, 0.1% SDS) supplemented with 1 mM PMSF (Sigma) and EDTA-free protease inhibitor cocktail tablets (Roche). Cytotoxicity was determined from conditioned media using an LDH assay (Pierce 88954) as per the manufacturer's protocol. CatD protein levels were measured by ELISA (EMD Millipore Q1A29) as per the manufacturer's protocol. For both the LDH assay and the ELISA, absorbance was read on an EnVision plate reader (PerkinElmer). Data were normalized to DMSO and plotted in GraphPad Prism.

CatD [2] = target: T2, CatD (Homo sapiens, UniProt P07339); experiment: CatD purified enzyme fluorescence polarization assay; assay type: biochemical; set-up: final maturation into a non-covalently associated heavy chain and light chain; purchased Sigma C8696; host or cells: human liver; settings: for IC50: purified human enzyme, fluorescence polarization, substrate-based
Description: as §1
Target sequence in this assay (P07339 65-162 limits assumed): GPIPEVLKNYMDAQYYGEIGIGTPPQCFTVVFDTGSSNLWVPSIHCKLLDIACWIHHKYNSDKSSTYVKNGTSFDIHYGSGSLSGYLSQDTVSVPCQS
Target sequence in this assay (P07339 169-412 limits assumed): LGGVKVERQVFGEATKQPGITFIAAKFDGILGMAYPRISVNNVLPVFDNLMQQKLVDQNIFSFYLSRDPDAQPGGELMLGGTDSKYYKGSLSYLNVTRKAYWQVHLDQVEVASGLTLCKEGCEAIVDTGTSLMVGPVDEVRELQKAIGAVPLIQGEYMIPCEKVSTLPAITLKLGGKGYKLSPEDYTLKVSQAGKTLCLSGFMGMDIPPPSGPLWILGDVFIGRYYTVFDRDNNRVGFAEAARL

[3] = target: T3, ~30 kDa band (CatD heavy chain) in ARPE-19 cells (Homo sapiens, UniProt P07339); experiment: Live cell PF-7802 labelling, in-gel fluorescence analysis; assay type: cell-based; settings: pretreatment 2 µM inhibitor, PF-7802 100 nM
T3 construct: host or cells: ARPE-19

BACE1 [4] = target: T4, BACE1 (Homo sapiens, UniProt P56817); experiment: BACE1 purified enzyme fluorescence polarization assay; assay type: biochemical; set-up: His (C); made in house; host or cells: CHO-K1; settings: for IC50: purified human enzyme, fluorescence polarization, peptide substrate
Description: as §1
Target sequence in this assay (P56817 46-457): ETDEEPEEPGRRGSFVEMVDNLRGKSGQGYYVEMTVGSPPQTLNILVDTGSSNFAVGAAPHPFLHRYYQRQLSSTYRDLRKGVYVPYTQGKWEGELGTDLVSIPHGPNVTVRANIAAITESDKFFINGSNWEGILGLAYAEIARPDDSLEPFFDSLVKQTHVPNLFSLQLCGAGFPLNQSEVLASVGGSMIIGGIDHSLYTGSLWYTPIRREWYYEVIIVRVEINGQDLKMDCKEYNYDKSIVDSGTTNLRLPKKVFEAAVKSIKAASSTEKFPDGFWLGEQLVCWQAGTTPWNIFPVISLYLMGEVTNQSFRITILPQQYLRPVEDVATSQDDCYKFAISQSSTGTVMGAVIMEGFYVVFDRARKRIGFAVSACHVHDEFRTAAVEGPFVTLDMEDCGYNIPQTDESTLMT

CatD [5] = target: T2, CatD; experiment: CatD cellular assay (competition of PF-7802 photolabelling in live ARPE-19 cells); assay type: cell-based; set-up: host or cells: ARPE-19
Description: ARPE-19 cells were plated at a density of 1.2 × 10^6 cells per well in six-well dishes 12–24 h before probe labelling. Culture media was removed completely and replaced with 1 ml of the appropriate serum-free media (no supplements) per well. Cells were then pretreated with test compounds at the indicated concentrations for 30 min (0.5% DMSO, 37 °C, 5% CO2). […] Ultraviolet irradiation was performed without culture plate lids for efficient irradiation, and samples were slowly rotated to prevent evaporation. After ultraviolet irradiation, cells were washed twice with Dulbecco's phosphate-buffered saline (DPBS), scraped into DPBS, centrifuged and stored as pellets at −80 °C.
Cells were lysed with sonication on ice in 70 μl DPBS and protein concentrations were determined using a BCA assay (Pierce). Total protein concentrations were then normalized to 1 mg ml^−1 in 50 μl total volume before addition of 5.5 μl click chemistry mix (1 : 3 : 1 : 0.5 volume of 50 mM CuSO4 (Sigma) in H2O : 1.7 mM TBTA (Sigma) in 4:1 t-BuOH:DMSO : 50 mM TCEP (Hampton Research) in dPBS : 10 mM TAMRA-azide (Lumiprobe) in DMSO - mixed immediately before use. Reagent solutions can be premade and stored at 4 °C except for TCEP, which should be made immediately before use). […] All fluorescence gels are presented in greyscale.
Target sequence in this assay (P07339 169-412 limits assumed): as the sequence (P07339 169-412 limits assumed) above
Target sequence in this assay (P07339 65-162 limits assumed): as the sequence (P07339 65-162 limits assumed) above

BACE1 [6] = target: T4, BACE1; experiment: BACE1 biochemical cellular assay (sAPPβ ELISA in H4 cells overexpressing APP695); assay type: cell-based; set-up: endogenous in cells; host or cells: H4 human neuroglioma cells overexpressing human APP695; settings: for IC50: sAPPβ ELISA, H4 neuroglioma cells with human wild-type APP
Description: Cellular inhibition of BACE1 was determined by measuring sAPPβ, the primary cleavage product of BACE-1, in H4 human neuroglioma cells overexpressing the wild-type human APP695. […] The colorimetric reaction was read by an EnVision plate reader (PerkinElmer).
Target sequence in this assay (P56817 46-501): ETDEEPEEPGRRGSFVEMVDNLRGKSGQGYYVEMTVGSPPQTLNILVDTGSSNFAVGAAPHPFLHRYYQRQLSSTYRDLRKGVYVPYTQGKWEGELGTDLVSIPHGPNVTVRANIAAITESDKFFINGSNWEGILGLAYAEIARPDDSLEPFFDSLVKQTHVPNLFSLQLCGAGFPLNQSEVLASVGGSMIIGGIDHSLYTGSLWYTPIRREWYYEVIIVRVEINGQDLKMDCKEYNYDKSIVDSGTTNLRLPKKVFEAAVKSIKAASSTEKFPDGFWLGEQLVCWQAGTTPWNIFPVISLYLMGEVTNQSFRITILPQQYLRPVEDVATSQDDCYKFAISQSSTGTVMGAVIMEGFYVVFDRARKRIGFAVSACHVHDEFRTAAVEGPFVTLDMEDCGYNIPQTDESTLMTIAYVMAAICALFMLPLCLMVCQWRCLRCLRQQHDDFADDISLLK

[7] = In vivo metabolism of BACE1 inhibitors in rats; set-up: species or system rat
[8] = Plasma exposure (average unbound plasma concentration) in rats; assay type: in vivo, rat; settings: rat, 14 days; for concentration at 29 days: average unbound plasma concentration, read-out: Avg Cp,u parent; for Avg Cp,u metabolite: metabolite of the dosed compound
Description: (§2) Wistar Han rats (obtained from Charles River, 125–300 g, 6–9 weeks old at study start, see Supplementary Table 7 for number of males and females) received daily oral dosing of test compounds or vehicle at the indicated concentrations for 7–29 days as indicated. The doses were prepared in a solution of 0.5% methylcellulose and 0.2% polysorbate 80, or 0.5% methylcellulose and hydroxypropyl methylcellulose acetate succinate (high fine grade) and delivered in a volume of 10 ml kg^−1 per day. Blood samples for bioanalytical analysis were collected in K2EDTA tubes via jugular vessel. Plasma was isolated after centrifugation and stored at −20 °C prior to analysis. Animals were given an additional dose the day after the end of the study (days 8, 15 or 30 for 7, 14 and 29 day studies, respectively) then killed by gas anaesthesia (isoflurane) followed by exsanguination ∼3 h after this final dose.
Plasma samples were analysed after protein precipitation by treating 20 μl of sample matrix with 200 μl of acetonitrile containing internal standard. All samples were centrifuged at 3,000 r.p.m. for 5 min. Then 100 μl of supernatant was transferred to a clean plate and evaporated to dryness under N2. Samples were reconstituted in 200 μl of 80:20 (v:v) acetonitrile:water. Samples were analysed on Waters Acquity UPLC connected to AB Sciex API5500 QTrap MS/MS.
Plasma protein binding was determined in the Rapid Equilibrium Device (RED, Thermo Scientific). Frozen plasma was warmed to 37 °C and adjusted to pH 7.4. The plasma was spiked with compound to a final concentration of 2 μM. Aliquots of spiked plasma were added to the donor (red) side, followed by addition of buffer to the receiver (white) side. The RED device was covered with a gas-permeable membrane and agitated within a humidified CO2 incubator (5% CO2, 75% relative humidity). Plasma (15 μl) and buffer (45 μl) were sampled from each insert and were matrix-matched with appropriate blank matrix (plasma with 45 μl buffer and buffer with 15 μl of plasma). Samples were protein-precipitated with acetonitrile containing internal standard, and the resulting supernatant was analysed by LC-MS/MS.

[9] = pKa determination by multiplexed capillary electrophoresis; assay type: physicochemical; settings: aqueous buffers
Description: All pKa values were determined at Analiza, Inc. by multiplexed capillary electrophoresis (mCE) using 96-capillary array electrophoresis instrument to measure the effective mobility (migration time of the compound in relation to neutral marker, DMSO) with ultraviolet detection. The pKa values were obtained from the ionization curves by plotting the compound effective mobility (24 points across pH range 1.7–11.2) versus pH. All pKa results were determined using aqueous buffers with method average absolute error 0.12.

[10] = tested on: retinal pigment epithelium (RPE); experiment: Exploratory toxicology, ocular toxicity by retinal histology in rats; assay type: in vivo; settings: rat, 14 days
Description: as §2

BACE1 [11] = target: T4, BACE1; experiment: PF-7802 labelling of HEK293T cells overexpressing BACE1; assay type: cell-based; set-up: endogenous in cells; host or cells: H4 human neuroglioma cells overexpressing human APP695; settings: 1 μM PF-7802, in-gel fluorescence
Description: (§3) Myc-DDK-tagged BACE1 and CatD were purchased as complementary DNA clones in the pCMV6-Entry vector (OriGene, catalogue nos RC209115 and RC200719). Site-directed mutagenesis was performed using the QuikChange II kit (Agilent) according to the manufacturer's protocols. For CatD M307A, forward primer 5′-[…]-3′ and its reverse complement primer were used. For CatD M309A, the forward primer was 5′-[…]-3′. Mutagenesis was confirmed by sequencing using primers provided by OriGene with the cDNA.
(§4) HEK-293T cells were plated at a density of 1 × 10^6 cells per well, allowed to adhere overnight and then transfected with Lipofectamine 3000 (Life Technologies) according to the manufacturer's protocol. […] Immunoblots were scanned using a LiCor Odyssey.
Target sequence in this assay (P56817 46-501): as above

Microsomal stability = assay type: in vitro ADME
CatD [12] = target: T2, CatD; experiment: PF-7802 labelling of HEK293T cells overexpressing CatD; assay type: cell-based; set-up: Myc-DDK (FLAG) (C); host or cells: HEK293T; settings: 1 μM PF-7802, in-gel fluorescence
Description: as §3, §4
Target sequence in this assay (P07339 65-412): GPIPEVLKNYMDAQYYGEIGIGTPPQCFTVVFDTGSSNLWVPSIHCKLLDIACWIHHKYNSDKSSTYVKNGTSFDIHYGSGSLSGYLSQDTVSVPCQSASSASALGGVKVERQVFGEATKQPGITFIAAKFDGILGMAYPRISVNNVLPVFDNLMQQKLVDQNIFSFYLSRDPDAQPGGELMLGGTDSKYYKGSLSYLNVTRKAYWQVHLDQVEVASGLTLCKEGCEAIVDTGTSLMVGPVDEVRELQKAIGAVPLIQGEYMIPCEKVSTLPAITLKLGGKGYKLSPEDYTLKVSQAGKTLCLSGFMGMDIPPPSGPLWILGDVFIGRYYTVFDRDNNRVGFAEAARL

T3 sequence (P07339 169-412 limits assumed): as the sequence (P07339 169-412 limits assumed) above
T3 sequence (P07339 65-162 limits assumed): as the sequence (P07339 65-162 limits assumed) above

SMILES: C[C@@H](NC(=O)c1cc(C(=O)N[C@@H](Cc2ccccc2)[C@H](O)CNC2CC2)cc(N(C)S(C)(=O)=O)c1)c1ccccc1 [BACE1 inhibitor IV]
- Ocular pathology in wild-type mice (retina): could also be induced in vivo in wild-type mice

- BACE2 activity (BACE2): no activity
- Inhibition of purified CatD (CatD [2]; purified CatD biochemical substrate assay): potent; also recorded: nanomolar potency
- Competition of PF-7802 labelling of the 30 kDa band [3]: blocked labelling of the 30 kDa band
- BACE1 activity (BACE1 [4]): no BACE1 activity
SMILES: CNC1CCN(C(=O)C[C@@H](Cc2ccccc2)C(=O)N[C@@H](CSC)C(=O)N[C@@H](CC2CCCCC2)[C@@H](O)C(=O)OC(C)C)CC1 [CP-108671, reference compound]
- CatD protein accumulation (ELISA) [1]: could be reproduced

SMILES: Cc1coc([C@H]2C[C@H]3[C@@H](CF)SC(N)=N[C@@]3(c3ccc(F)cc3F)CO2)n1 [PF-1283]
- IC50 (BACE2): 95 nM
- CatD potency increase in live cells (CatD [5]; CatD enzyme IC50 versus CatD cellular IC50): 54 x
- IC50 (CatD [5]; live ARPE-19 cells, PF-7802 photoprobe 100 nM, 30 min): 240 nM
- BACE1 potency increase in live cells (BACE1 [6]; BACE1 enzyme IC50 versus BACE1 cellular IC50): 12 x
- IC50 (BACE1 [6]): 10 nM
- Stability to oxidative metabolism [7]: significantly more stable to oxidative metabolism; also recorded: significantly less susceptible to oxidative metabolism
- concentration at 29 days ([8]; 45 mg kg-1 once daily): 109 nM
- Avg Cp,u metabolite ([8]; 45 mg kg-1 once daily): 352 nM
- concentration at 29 days ([8]; 110 mg kg-1 once daily): 793 nM
- Avg Cp,u metabolite ([8]; 110 mg kg-1 once daily): 859 nM
- IC50 (CatD [2]): 13000 nM
- pKa [9]: 7.0
- Female ocular toxicity incidence (positive or negative animals / total evaluated) ([10]; 45 mg kg-1 once daily): 3/3
- Female ocular toxicity outcome ([10]; 45 mg kg-1 once daily): Neg (negative (neg) if there was no ocular abnormality observed)
- Male ocular toxicity incidence (positive or negative animals / total evaluated) ([10]; 45 mg kg-1 once daily): 3/3
- Male ocular toxicity outcome ([10]; 45 mg kg-1 once daily): Neg (negative (neg) if there was no ocular abnormality observed)
- Female ocular toxicity incidence (positive or negative animals / total evaluated) ([10]; 110 mg kg-1 once daily): 1/3
- Female ocular toxicity outcome ([10]; 110 mg kg-1 once daily): Pos
- Male ocular toxicity incidence (positive or negative animals / total evaluated) ([10]; 110 mg kg-1 once daily): 3/3
- Male ocular toxicity outcome ([10]; 110 mg kg-1 once daily): Neg (negative (neg) if there was no ocular abnormality observed)
- IC50 (BACE1 [4]): 120 nM

- IC50 (BACE2): 120 nM
- IC50 (BACE1 [6]): 320 nM
- IC50 (CatD [2]): 1200 nM
- Microsomal stability (Microsomal stability): poor microsomal stability
- PF-7802 labelling in HEK293T cells overexpressing CatD (CatD [12]): robust labelling of CatD was observed
- IC50 (BACE1 [4]): 44 nM
SMILES: C#CCOc1ccc(C(=O)c2ccc(COC[C@H]3C[C@H]4CSC(N)=N[C@@]4(c4ccc(F)cc4F)CO3)cc2)cc1 [PF-7802]
- PF-7802 labelling in HEK293T cells overexpressing BACE1 (BACE1 [11]): indistinguishable from a mock transfected control
